The values below are quoted from earlier work in patent US20100022659A1, “Methods and Compositions for the Treatment of CNS-Related Conditions” (priority 2004, published 2010).

Read-outs that look alike come from different tables or passages of the source.

The conditions of the series: humans, cited from earlier work.
[1] abbreviates: MAO inhibitors/GAPDHais, Table 2.

For `CC12CC3CC(C)(C1)CC(N)(C3)C2` [Memantine, 1-amino-3,5-dimethyladamantane], the “Human PK” value (NMDAr antagonists, Table 1) was 56 h.

As to `C#CCN[C@@H]1CCc2ccccc21` [N-propargyl-1(R)-aminoindan/Rasageline, N-propargyl-1(R)-aminoindan], the “Human PK” value under setting [1] was 1.8 h.

For `CC(N)C12CC3CC(CC(C3)C1)C2` (stereo not shown) [Rimantadine, 1-(1-aminoethyl)adamantane], the “Human PK” value (NMDAr antagonists, Table 1) is 25 h.

For Desmethyldeprenyl, the “Human PK” value under setting [1] is 3.8 to 9.5 h.
